Tests used:
Assay type in all cases: in vivo
[1] = test system: Triticum aestivum (spring wheat), TRZAS; assay: Greenhouse postemergence safening trial, visual injury on spring wheat
Procedure: (§1) Greenhouse Trial Methodology-Evaluation of Postemergence Herbicidal […] in Crops […] When required to ensure good germination and healthy plants, a fungicide treatment and/or other chemical or physical treatment was applied. The plants were grown for 7-36 days (d) in a greenhouse with an approximate 14-hour (h) photoperiod which was maintained at about 23° C. during the day and 22° C. during the night. Nutrients and water were added on a regular basis and supplemental lighting was provided with overhead metal halide 1000-Watt lamps as necessary. The plants were employed for testing when they reached the second or third true leaf stage. Emulsifiable concentrates of each of each pyridine carboxylate herbicide (Compound A or Compound B) were prepared at 100 grams acid equivalent per liter (g ae/L). […] The concentrated stock solutions were further diluted with an aqueous mixture of 1.25% […] or MSO® Concentrate with LECI-TECH® to obtain stock solutions at reduced application rates for each herbicide. Spray solutions of the herbicide combinations (Compound A or Compound B plus safener) were prepared by adding weighed amounts or aliquots of the safener to the stock solutions of Compound A or Compound B to form 12-mL spray solutions in two-way combinations. […] Control plants were sprayed in the same manner with the solvent blank. All herbicide (component a) application rates are given as “g ae/ha” and all safener (component b) application rates are given as “g ai/ha.” The treated plants and control plants were placed in a greenhouse as described above and watered by sub-irrigation to prevent wash-off of the test compounds.

[2] = test system: Triticum aestivum (winter wheat), TRZAW; assay: Greenhouse postemergence safening trial, visual injury on winter wheat; conditions: safener alone 40 g/ha
Procedure: as §1

[3] = test system: Triticum aestivum (durum wheat), TRZDU; assay: Greenhouse postemergence safening trial, visual injury on durum wheat; conditions: safener alone 40 g/ha
Procedure: as §1

[4] = test system: Hordeum vulgare (spring barley), HORVS; assay: Greenhouse postemergence safening trial, visual injury on spring barley
Procedure: as §1

[5] = test system: Hordeum vulgare (winter barley), HORVW; assay: Greenhouse postemergence safening trial, visual injury on winter barley; conditions: safener alone 40 g/ha
Procedure: as §1

[6] = test system: Avena sativa (common oat), AVESA; assay: Greenhouse postemergence safening trial, visual injury on common oat; conditions: safener alone 40 g/ha
Procedure: as §1

[7] = test system: Brassica napus (winter rape), BRSNW; assay: Greenhouse postemergence trial, visual injury on winter rape
Procedure: as §1

[8] = test system: Matricaria chamomilla (wild chamomile), MATCH; assay: Greenhouse postemergence trial, visual injury on wild chamomile
Procedure: as §1

[9] = test system: Salsola kali (Russian thistle), SASKR; assay: Greenhouse postemergence trial, visual injury on Russian thistle
Procedure: as §1

CCN(CC)CC.O=C(O)COc1ccc(Cl)c2cccnc12 [CQC-TEA, cloquintocet-triethylamine salt]
0%: % visual injury, Ob ([1]; safener alone 10 g/ha) | % visual injury, Ob ([1]; safener alone 20 g/ha) | % visual injury, Ob ([1]; safener alone 40 g/ha) | % visual injury, Ob [2] | % visual injury, Ob [3] | % visual injury, Ob ([4]; safener alone 10 g/ha) | % visual injury, Ob ([4]; safener alone 20 g/ha) | % visual injury, Ob ([4]; safener alone 40 g/ha) | % visual injury Δ [5] | % visual injury, Ob [5] | % visual injury, Ob [6] | % visual injury, Ob ([7]; safener alone 10 g/ha) | % visual injury, Ob ([7]; safener alone 20 g/ha) | % visual injury, Ob ([7]; safener alone 40 g/ha) | % visual injury, Ob ([8]; safener alone 10 g/ha) | % visual injury, Ob ([8]; safener alone 20 g/ha) | % visual injury, Ob ([8]; safener alone 40 g/ha) | % visual injury, Ob ([9]; safener alone 10 g/ha) | % visual injury, Ob ([9]; safener alone 20 g/ha) | % visual injury, Ob ([9]; safener alone 40 g/ha)

CNC.O=C(O)COc1ccc(Cl)c2cccnc12 [CQC-DMA, cloquintocet-dimethylammonium salt]
0%: % visual injury, Ob ([1]; safener alone 10 g/ha) | % visual injury, Ob ([1]; safener alone 20 g/ha) | % visual injury, Ob ([1]; safener alone 40 g/ha) | % visual injury Δ [2] | % visual injury, Ob [2] | % visual injury, Ob [3] | % visual injury, Ob ([4]; safener alone 10 g/ha) | % visual injury, Ob ([4]; safener alone 20 g/ha) | % visual injury, Ob ([4]; safener alone 40 g/ha) | % visual injury, Ob [5] | % visual injury, Ob [6] | % visual injury, Ob ([7]; safener alone 10 g/ha) | % visual injury, Ob ([7]; safener alone 20 g/ha) | % visual injury, Ob ([7]; safener alone 40 g/ha) | % visual injury, Ob ([8]; safener alone 10 g/ha) | % visual injury, Ob ([8]; safener alone 20 g/ha) | % visual injury, Ob ([8]; safener alone 40 g/ha) | % visual injury, Ob ([9]; safener alone 10 g/ha) | % visual injury, Ob ([9]; safener alone 20 g/ha) | % visual injury, Ob ([9]; safener alone 40 g/ha)

CC(O)CN(CC(C)O)CC(C)O.O=C(O)COc1ccc(Cl)c2cccnc12 [CQC-TIPA, cloquintocet-triisopropanolamine salt]
0%: % visual injury, Ob ([1]; safener alone 10 g/ha) | % visual injury, Ob ([1]; safener alone 20 g/ha) | % visual injury, Ob ([1]; safener alone 40 g/ha) | % visual injury, Ob ([4]; safener alone 10 g/ha) | % visual injury, Ob ([4]; safener alone 20 g/ha) | % visual injury, Ob ([4]; safener alone 40 g/ha) | % visual injury, Ob ([7]; safener alone 10 g/ha) | % visual injury, Ob ([7]; safener alone 20 g/ha) | % visual injury, Ob ([7]; safener alone 40 g/ha) | % visual injury, Ob ([8]; safener alone 10 g/ha) | % visual injury, Ob ([8]; safener alone 20 g/ha) | % visual injury, Ob ([8]; safener alone 40 g/ha) | % visual injury, Ob ([9]; safener alone 10 g/ha) | % visual injury, Ob ([9]; safener alone 20 g/ha) | % visual injury, Ob ([9]; safener alone 40 g/ha)

COC(=O)COc1ccc(Cl)c2cccnc12 [CQC-methyl, cloquintocet-methyl]
0%: % visual injury, Ob ([1]; safener alone 10 g/ha) | % visual injury, Ob ([1]; safener alone 20 g/ha) | % visual injury, Ob ([1]; safener alone 40 g/ha) | % visual injury, Ob ([4]; safener alone 10 g/ha) | % visual injury, Ob ([4]; safener alone 20 g/ha) | % visual injury, Ob ([4]; safener alone 40 g/ha) | % visual injury, Ob ([7]; safener alone 10 g/ha) | % visual injury, Ob ([7]; safener alone 20 g/ha) | % visual injury, Ob ([7]; safener alone 40 g/ha) | % visual injury, Ob ([8]; safener alone 10 g/ha) | % visual injury, Ob ([8]; safener alone 20 g/ha) | % visual injury, Ob ([8]; safener alone 40 g/ha) | % visual injury, Ob ([9]; safener alone 10 g/ha) | % visual injury, Ob ([9]; safener alone 20 g/ha) | % visual injury, Ob ([9]; safener alone 40 g/ha)

— patent US12310364B2, “Safened compositions comprising pyridine carboxylate herbicides and cloquintocet” (Corteva Agriscience LLC, priority 2018, dated 2025)
